Measured values reported in BigSolDB 2.1.

Cc1cnc(N)s1
Conditions	solubility (mole fraction)
in 1,4-dioxane, 278.15 K	0.0399
in 1,4-dioxane, 280.65 K	0.0431
in 1,4-dioxane, 283.15 K	0.0474
in 1,4-dioxane, 285.65 K	0.0517
in 1,4-dioxane, 288.15 K	0.0563
in 1,4-dioxane, 290.65 K	0.0618
in 1,4-dioxane, 293.15 K	0.0673
in 1,4-dioxane, 295.65 K	0.0737
in 1,4-dioxane, 298.15 K	0.0806
in 1,4-dioxane, 300.65 K	0.0881
in 1,4-dioxane, 303.15 K	0.0961
in 1,4-dioxane, 305.65 K	0.105
in 1,4-dioxane, 308.15 K	0.115
in 1,4-dioxane, 310.65 K	0.126
in 1,4-dioxane, 313.15 K	0.138
in 2-butanone, 278.15 K	0.0365
in 2-butanone, 280.65 K	0.0405
in 2-butanone, 283.15 K	0.0448
in 2-butanone, 285.65 K	0.049
in 2-butanone, 288.15 K	0.0535
in 2-butanone, 290.65 K	0.0585
in 2-butanone, 293.15 K	0.064
in 2-butanone, 295.65 K	0.0705
in 2-butanone, 298.15 K	0.0776
in 2-butanone, 300.65 K	0.0849
in 2-butanone, 303.15 K	0.093
in 2-butanone, 305.65 K	0.101
in 2-butanone, 308.15 K	0.111
in 2-butanone, 310.65 K	0.121
in 2-butanone, 313.15 K	0.133
in acetone, 278.15 K	0.0493
in acetone, 280.65 K	0.0535
in acetone, 283.15 K	0.0587
in acetone, 285.65 K	0.0637
in acetone, 288.15 K	0.0692
in acetone, 290.65 K	0.0756
in acetone, 293.15 K	0.0825
in acetone, 295.65 K	0.09
in acetone, 298.15 K	0.0979
in acetone, 300.65 K	0.107
in acetone, 303.15 K	0.116
in acetone, 305.65 K	0.126
in acetone, 308.15 K	0.137
in acetone, 310.65 K	0.15
in acetone, 313.15 K	0.163
in acetonitrile, 278.15 K	0.0284
in acetonitrile, 280.65 K	0.031
in acetonitrile, 283.15 K	0.0341
in acetonitrile, 285.65 K	0.0372
in acetonitrile, 288.15 K	0.0406
in acetonitrile, 290.65 K	0.0446
in acetonitrile, 293.15 K	0.0489
in acetonitrile, 295.65 K	0.0536
in acetonitrile, 298.15 K	0.0586
in acetonitrile, 300.65 K	0.0638
in acetonitrile, 303.15 K	0.0699
in acetonitrile, 305.65 K	0.0763
in acetonitrile, 308.15 K	0.0838
in acetonitrile, 310.65 K	0.0921
in acetonitrile, 313.15 K	0.1
in cyclohexane, 283.15 K	0.000429
in cyclohexane, 285.65 K	0.000491
in cyclohexane, 288.15 K	0.000566
in cyclohexane, 290.65 K	0.000645
in cyclohexane, 293.15 K	0.000736
in cyclohexane, 295.65 K	0.000839
in cyclohexane, 298.15 K	0.000953
in cyclohexane, 300.65 K	0.00108
in cyclohexane, 303.15 K	0.00123
in cyclohexane, 305.65 K	0.00138
in cyclohexane, 308.15 K	0.00156
in cyclohexane, 310.65 K	0.00173
in cyclohexane, 313.15 K	0.00194
in ethanol, 278.15 K	0.0486
in ethanol, 280.65 K	0.0529
in ethanol, 283.15 K	0.0574
in ethanol, 285.65 K	0.0629
in ethanol, 288.15 K	0.0677
in ethanol, 290.65 K	0.0736
in ethanol, 293.15 K	0.0799
in ethanol, 295.65 K	0.0869
in ethanol, 298.15 K	0.095
in ethanol, 300.65 K	0.103
in ethanol, 303.15 K	0.112
in ethanol, 305.65 K	0.122
in ethanol, 308.15 K	0.133
in ethanol, 310.65 K	0.144
in ethanol, 313.15 K	0.157
in ethyl acetate, 278.15 K	0.0523
in ethyl acetate, 280.65 K	0.0567
in ethyl acetate, 283.15 K	0.0614
in ethyl acetate, 285.65 K	0.067
in ethyl acetate, 288.15 K	0.0726
in ethyl acetate, 290.65 K	0.0791
in ethyl acetate, 293.15 K	0.086
in ethyl acetate, 295.65 K	0.0934
in ethyl acetate, 298.15 K	0.101
in ethyl acetate, 300.65 K	0.109
in ethyl acetate, 303.15 K	0.118
in ethyl acetate, 305.65 K	0.129
in ethyl acetate, 308.15 K	0.14
in ethyl acetate, 310.65 K	0.152
in ethyl acetate, 313.15 K	0.164
in isopropanol, 278.15 K	0.0345
in isopropanol, 280.65 K	0.0381
in isopropanol, 283.15 K	0.0415
in isopropanol, 285.65 K	0.0452
in isopropanol, 288.15 K	0.0497
in isopropanol, 290.65 K	0.0546
in isopropanol, 293.15 K	0.0594
in isopropanol, 295.65 K	0.0647
in isopropanol, 298.15 K	0.0709
in isopropanol, 300.65 K	0.0775
in isopropanol, 303.15 K	0.085
in isopropanol, 305.65 K	0.0927
in isopropanol, 308.15 K	0.102
in isopropanol, 310.65 K	0.112
in isopropanol, 313.15 K	0.121
in methanol, 278.15 K	0.0594
in methanol, 280.65 K	0.0639
in methanol, 283.15 K	0.0686
in methanol, 285.65 K	0.0742
in methanol, 288.15 K	0.0796
in methanol, 290.65 K	0.086
in methanol, 293.15 K	0.0927
in methanol, 295.65 K	0.0999
in methanol, 298.15 K	0.107
in methanol, 300.65 K	0.116
in methanol, 303.15 K	0.125
in methanol, 305.65 K	0.135
in methanol, 308.15 K	0.146
in methanol, 310.65 K	0.157
in methanol, 313.15 K	0.169
in n-propanol, 278.15 K	0.037
in n-propanol, 280.65 K	0.0404
in n-propanol, 283.15 K	0.0441
in n-propanol, 285.65 K	0.0482
in n-propanol, 288.15 K	0.0526
in n-propanol, 290.65 K	0.0575
in n-propanol, 293.15 K	0.0628
in n-propanol, 295.65 K	0.0686
in n-propanol, 298.15 K	0.075
in n-propanol, 300.65 K	0.082
in n-propanol, 303.15 K	0.0898
in n-propanol, 305.65 K	0.098
in n-propanol, 308.15 K	0.107
in n-propanol, 310.65 K	0.117
in n-propanol, 313.15 K	0.128
in toluene, 278.15 K	0.0109
in toluene, 280.65 K	0.0121
in toluene, 283.15 K	0.0136
in toluene, 285.65 K	0.0149
in toluene, 288.15 K	0.0167
in toluene, 290.65 K	0.0185
in toluene, 293.15 K	0.0205
in toluene, 295.65 K	0.0225
in toluene, 298.15 K	0.0251
in toluene, 300.65 K	0.028
in toluene, 303.15 K	0.0312
in toluene, 305.65 K	0.0348
in toluene, 308.15 K	0.039
in toluene, 310.65 K	0.0438
in toluene, 313.15 K	0.0493
